Reference: the NIST ThermoML archive (doi:10.1016/j.tca.2010.05.016)

Assay: mn = molality of the nth substance listed, in mol/kg
Conditions: 101 kPa, Liquid; for speed of sound: Vibrating Tube; for mass density: Vibrating tube method

NCC(=O)NCC(=O)NCC(=O)O [glycylglycylglycine] + O
Conditions | mass density, 288.15 K [kg/m3] | mass density, 293.15 K [kg/m3] | mass density, 298.15 K [kg/m3] | mass density, 303.15 K [kg/m3] | mass density, 308.15 K [kg/m3] | speed of sound, 288.15 K [m/s] | speed of sound, 293.15 K [m/s] | speed of sound, 298.15 K [m/s] | speed of sound, 303.15 K [m/s] | speed of sound, 308.15 K [m/s]
m1 = 0.03587 | 1001.94 | 1001 | 999.808 | 998.381 | 996.783 | 1470.6 | 1486.7 | 1500.8 | 1512.9 | 1523.3
m1 = 0.04684 | 1002.79 | 1001.85 | 1000.64 | 999.208 | 997.565 | 1471.6 | 1487.8 | 1501.8 | 1514 | 1524.3
m1 = 0.05855 | 1003.69 | 1002.74 | 1001.52 | 1000.08 | 998.435 | 1473 | 1489 | 1503 | 1515.1 | 1525.4
m1 = 0.06301 | 1004.03 | 1003.07 | 1001.86 | 1000.41 | 998.76 | 1473.4 | 1489.4 | 1503.4 | 1515.5 | 1525.8
m1 = 0.07743 | 1005.13 | 1004.16 | 1002.93 | 1001.54 | 999.825 | 1475 | 1490.8 | 1504.8 | 1516.8 | 1527.3
m1 = 0.09073 | 1006.13 | 1005.15 | 1003.92 | 1002.46 | 1000.79 | 1476.5 | 1492.6 | 1506 | 1518.4 | 1528.5
m1 = 0.1016 | 1006.95 | 1005.96 | 1004.73 | 1003.26 | 1001.58 | 1477.7 | 1493.4 | 1507.3 | 1519.3 | 1529.5
